Series [1] can be described thus: Screening of crystallization inhibitors: sorafenib content in polymer carrier/cholate medium over time. Particulars: pH 6.8 phosphate + 0.1% SDS with the inhibitor, 37° C. It is filed as physicochemical.
The nature of series [2]: Solubility test of solid dispersions (pH 1.0 hydrochloric acid, pH 6.8 phosphate buffer, FaSSGF, FaSSIF). It counts as physicochemical. Particulars: pH 1.0 hydrochloric acid solution, 37° C., main drug:carrier 1:3. Here is the method:
An appropriate amount of solid dispersion (SD) was added to a pH 1.0 hydrochloric acid solution and a pH 6.8 phosphate buffer solution, while keeping the SD in excess, and shaken at 37° C. in a shaker at 300 rpm.

The structures appear in SMILES notation. Counter-ions that a name gives are not always drawn.

The record followed here is patent US20230310393A1 (Tianjin Creatron Biotechnology Co., Ltd., priority 2020, published 2023).

As usually defined, the Solubility is how much of the substance goes into solution per volume.

With `C[C@H](CCC(=O)NCC(=O)[O-])[C@H]1CC[C@H]2[C@@H]3[C@H](O)C[C@@H]4C[C@H](O)CC[C@]4(C)[C@H]3C[C@H](O)[C@]12C.[Na+]` [0.3% SGC, sodium glycocholate], the Sorafenib content detection in series [1] (0.5 h) came out at 14.32 µg/mL; in series [1] (1 h), 5.88 µg/mL; in series [1] (2 h), 4.32 µg/mL; in series [1] (3 h) it was 3.98 µg/mL; in series [1] (4 h), 3.77 µg/mL; in series [1] (6 h) it was 3.57 µg/mL.
On to `C[C@H](CCC(=O)NCC(=O)[O-])[C@H]1CC[C@H]2[C@@H]3[C@H](O)C[C@@H]4C[C@H](O)CC[C@]4(C)[C@H]3CC[C@]12C.[Na+]` [0.3% SGCDC, sodium glycochenodeoxycholate], for which the Sorafenib content detection was found to be 61.59 µg/mL in series [1] (0.5 h); 47.08 µg/mL in series [1] (1 h); 10.41 µg/mL in series [1] (2 h); 5.38 µg/mL in series [1] (3 h); 4.28 µg/mL in series [1] (4 h); 3.68 µg/mL in series [1] (6 h).
In the case of `C[C@H](CCC(=O)NCC(=O)[O-])[C@H]1CC[C@H]2[C@@H]3CC[C@@H]4C[C@H](O)CC[C@]4(C)[C@H]3C[C@H](O)[C@]12C.[Na+]` [0.3% SGDC, sodium glycodeoxycholate], the Sorafenib content detection in series [1] (0.5 h) was found to be 15.78 µg/mL; in series [1] (1 h) it was 6.28 µg/mL; in series [1] (2 h) it was 4.11 µg/mL; in series [1] (3 h) it was 4.01 µg/mL; in series [1] (4 h), 4.04 µg/mL; in series [1] (6 h), 3.87 µg/mL.
With `C[C@H](CCC(=O)NCCS(=O)(=O)[O-])[C@H]1CC[C@H]2[C@@H]3[C@@H](O)C[C@@H]4C[C@H](O)CC[C@]4(C)[C@H]3CC[C@]12C.[Na+]` [0.3% STCDC], the Sorafenib content detection amounted to 14.43 µg/mL in series [1] (0.5 h); 6.22 µg/mL in series [1] (1 h); 4.69 µg/mL in series [1] (2 h); 4.79 µg/mL in series [1] (3 h); 4.81 µg/mL in series [1] (4 h); 5.79 µg/mL in series [1] (6 h).
`C[C@H](CCC(=O)NCCS(=O)(=O)[O-])[C@H]1CC[C@H]2[C@@H]3CC[C@@H]4C[C@H](O)CC[C@]4(C)[C@H]3C[C@H](O)[C@]12C.[Na+]` [0.3% STDC, sodium taurodeoxycholate]: the Sorafenib content detection in series [1] (0.5 h) was determined as 47.72 µg/mL; in series [1] (1 h) it was 25.90 µg/mL; in series [1] (2 h), 11.19 µg/mL; in series [1] (3 h), 7.82 µg/mL; in series [1] (4 h), 6.58 µg/mL; in series [1] (6 h) it was 5.90 µg/mL.
`CNC(=O)c1cc(Oc2ccc(NC(=O)Nc3ccc(Cl)c(C(F)(F)F)c3)cc2)ccn1` [TSSLFN, Sorafenib tosylate]: the Solubility came out at 3.7 µg/mL in series [2] (0.5 h), 4.1 µg/mL in series [2] (2 h) and 4.1 µg/mL in series [2] (4 h).
